Test [1] deals with T1, Serine/threonine-protein kinase PLK4 (Homo sapiens) (UniProt O00444).
T1 sequence (whole entry): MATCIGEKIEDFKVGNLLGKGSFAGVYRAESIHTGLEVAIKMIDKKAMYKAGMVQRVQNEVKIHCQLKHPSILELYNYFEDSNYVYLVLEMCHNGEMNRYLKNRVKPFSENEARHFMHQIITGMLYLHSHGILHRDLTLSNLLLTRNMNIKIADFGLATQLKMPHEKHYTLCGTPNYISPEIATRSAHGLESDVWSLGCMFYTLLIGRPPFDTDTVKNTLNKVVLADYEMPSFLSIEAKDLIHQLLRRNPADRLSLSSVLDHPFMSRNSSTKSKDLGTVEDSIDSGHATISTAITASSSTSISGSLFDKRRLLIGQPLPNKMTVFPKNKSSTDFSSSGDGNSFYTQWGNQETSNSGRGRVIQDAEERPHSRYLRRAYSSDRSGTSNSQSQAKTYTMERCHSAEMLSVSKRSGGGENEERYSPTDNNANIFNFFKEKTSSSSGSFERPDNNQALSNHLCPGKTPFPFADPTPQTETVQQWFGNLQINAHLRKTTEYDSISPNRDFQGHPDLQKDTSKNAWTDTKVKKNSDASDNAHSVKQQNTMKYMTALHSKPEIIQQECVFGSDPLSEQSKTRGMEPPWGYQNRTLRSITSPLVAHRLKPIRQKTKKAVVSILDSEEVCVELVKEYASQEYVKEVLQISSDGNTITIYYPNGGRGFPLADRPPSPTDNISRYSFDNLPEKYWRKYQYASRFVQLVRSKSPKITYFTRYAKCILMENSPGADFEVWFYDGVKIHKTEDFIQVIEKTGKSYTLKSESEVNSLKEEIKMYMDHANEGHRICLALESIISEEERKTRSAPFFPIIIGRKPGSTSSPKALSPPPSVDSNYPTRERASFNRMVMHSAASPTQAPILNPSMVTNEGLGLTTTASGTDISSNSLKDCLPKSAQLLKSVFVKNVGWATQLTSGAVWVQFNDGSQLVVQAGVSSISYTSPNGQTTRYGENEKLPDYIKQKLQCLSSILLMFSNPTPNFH
To be noted: at 10 µM.

Test [2] has as its target Calcium/calmodulin-dependent protein kinase type II subunit gamma (Homo sapiens) (UniProt Q13555). To be noted: at 10 µM.
Test [3] has as its target Calcium/calmodulin-dependent protein kinase kinase 2 (Homo sapiens) (UniProt Q96RR4). The test is described as follows: Selectivity interaction (KinomeScan (DiscoverX)) EUB0001079a CAMKK2. Particulars: at 1 µM.
The target of test [4] is Serine/threonine-protein kinase WNK2 (Homo sapiens) (UniProt Q9Y3S1). The test is described as follows: Selectivity interaction (KinomeScan (DiscoverX)) EUB0001049a WNK2. Particulars: at 1 µM.
Chain of Serine/threonine-protein kinase WNK2 (Homo sapiens) (Q9Y3S1 whole entry): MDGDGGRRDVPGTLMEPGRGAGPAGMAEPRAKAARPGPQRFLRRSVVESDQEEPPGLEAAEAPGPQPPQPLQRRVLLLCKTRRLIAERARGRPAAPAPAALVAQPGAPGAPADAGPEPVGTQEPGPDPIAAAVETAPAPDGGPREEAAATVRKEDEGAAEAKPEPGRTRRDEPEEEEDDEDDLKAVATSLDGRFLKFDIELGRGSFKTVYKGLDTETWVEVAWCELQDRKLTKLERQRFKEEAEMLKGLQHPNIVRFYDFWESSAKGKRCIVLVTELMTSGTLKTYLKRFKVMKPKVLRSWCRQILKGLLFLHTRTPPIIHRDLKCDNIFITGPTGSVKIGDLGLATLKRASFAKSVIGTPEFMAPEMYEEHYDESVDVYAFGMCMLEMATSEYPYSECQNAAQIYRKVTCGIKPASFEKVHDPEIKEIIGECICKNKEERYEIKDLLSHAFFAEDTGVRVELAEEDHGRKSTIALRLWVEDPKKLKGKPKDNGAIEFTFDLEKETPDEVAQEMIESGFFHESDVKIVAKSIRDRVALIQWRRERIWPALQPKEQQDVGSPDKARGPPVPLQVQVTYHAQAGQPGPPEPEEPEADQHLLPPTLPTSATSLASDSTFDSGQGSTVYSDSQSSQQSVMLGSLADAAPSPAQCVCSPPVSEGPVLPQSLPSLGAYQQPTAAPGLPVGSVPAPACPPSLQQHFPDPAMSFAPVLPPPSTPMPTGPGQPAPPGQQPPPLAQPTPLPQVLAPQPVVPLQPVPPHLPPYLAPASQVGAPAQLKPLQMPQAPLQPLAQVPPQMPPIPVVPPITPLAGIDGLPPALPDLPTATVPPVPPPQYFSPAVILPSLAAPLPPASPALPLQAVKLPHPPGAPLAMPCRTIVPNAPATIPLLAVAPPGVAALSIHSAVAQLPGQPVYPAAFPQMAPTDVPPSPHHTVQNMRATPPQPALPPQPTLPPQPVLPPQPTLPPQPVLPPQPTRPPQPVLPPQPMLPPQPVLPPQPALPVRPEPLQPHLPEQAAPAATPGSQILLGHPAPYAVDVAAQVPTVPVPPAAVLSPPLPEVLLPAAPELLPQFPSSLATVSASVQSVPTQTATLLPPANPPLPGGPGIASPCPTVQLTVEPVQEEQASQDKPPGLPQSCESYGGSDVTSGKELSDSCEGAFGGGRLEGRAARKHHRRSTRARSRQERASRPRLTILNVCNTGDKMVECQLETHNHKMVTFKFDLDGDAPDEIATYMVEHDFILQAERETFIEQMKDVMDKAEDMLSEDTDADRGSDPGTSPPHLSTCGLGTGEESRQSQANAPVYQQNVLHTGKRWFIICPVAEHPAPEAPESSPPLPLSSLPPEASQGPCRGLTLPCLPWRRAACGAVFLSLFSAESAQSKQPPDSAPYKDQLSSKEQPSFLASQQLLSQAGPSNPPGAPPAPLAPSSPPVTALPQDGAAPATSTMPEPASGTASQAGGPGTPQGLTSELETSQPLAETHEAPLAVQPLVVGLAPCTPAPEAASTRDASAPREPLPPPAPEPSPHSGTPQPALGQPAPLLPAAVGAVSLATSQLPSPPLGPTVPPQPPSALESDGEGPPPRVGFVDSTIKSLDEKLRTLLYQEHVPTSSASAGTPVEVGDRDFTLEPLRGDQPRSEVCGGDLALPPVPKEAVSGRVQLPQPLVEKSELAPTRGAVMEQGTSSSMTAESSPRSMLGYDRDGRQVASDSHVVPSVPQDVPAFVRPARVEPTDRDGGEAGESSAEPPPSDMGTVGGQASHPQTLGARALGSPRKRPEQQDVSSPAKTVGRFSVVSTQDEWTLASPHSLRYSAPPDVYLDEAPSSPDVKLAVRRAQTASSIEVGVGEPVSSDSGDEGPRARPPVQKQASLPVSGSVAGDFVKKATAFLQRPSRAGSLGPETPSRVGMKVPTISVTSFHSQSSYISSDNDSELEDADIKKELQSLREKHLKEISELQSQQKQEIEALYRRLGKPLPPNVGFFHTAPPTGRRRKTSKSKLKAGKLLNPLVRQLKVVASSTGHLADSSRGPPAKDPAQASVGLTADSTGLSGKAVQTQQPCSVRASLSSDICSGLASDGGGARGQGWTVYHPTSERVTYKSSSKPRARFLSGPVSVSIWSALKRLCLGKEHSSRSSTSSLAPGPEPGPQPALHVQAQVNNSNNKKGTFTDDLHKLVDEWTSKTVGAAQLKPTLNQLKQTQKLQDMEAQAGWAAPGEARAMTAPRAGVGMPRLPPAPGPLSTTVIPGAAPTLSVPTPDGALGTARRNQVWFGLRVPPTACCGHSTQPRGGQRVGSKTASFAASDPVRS
In test [5] the target is T2, Serine/threonine-protein kinase 17A (Homo sapiens) (UniProt Q9UEE5).
T2 sequence (whole entry): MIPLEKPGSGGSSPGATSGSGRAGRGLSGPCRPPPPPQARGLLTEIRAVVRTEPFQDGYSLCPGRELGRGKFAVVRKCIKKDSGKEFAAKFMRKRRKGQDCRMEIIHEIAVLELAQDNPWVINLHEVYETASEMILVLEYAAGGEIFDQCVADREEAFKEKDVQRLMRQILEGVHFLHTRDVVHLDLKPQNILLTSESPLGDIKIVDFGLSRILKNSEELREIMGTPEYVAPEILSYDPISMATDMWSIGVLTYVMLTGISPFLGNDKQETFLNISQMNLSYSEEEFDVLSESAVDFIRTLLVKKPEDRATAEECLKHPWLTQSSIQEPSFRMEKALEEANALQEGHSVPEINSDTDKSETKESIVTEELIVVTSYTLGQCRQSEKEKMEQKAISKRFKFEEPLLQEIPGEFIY
The test is described as follows: Selectivity interaction (KinomeScan (DiscoverX)) EUB0000655a STK17A. To be noted: at 10 µM.

The target of test [6] is Myosin light chain kinase family member 4 (Homo sapiens, UniProt Q86YV6). The test is described as follows: Selectivity interaction (NanoBRET assay (HEK293T cells)) EUB0001550a MYLK4. In kind it is cell-based, HEK-293T. (BRET reads energy transfer from a luciferase to a nearby fluorophore.)
The target in test [7] is T3, Muscarinic acetylcholine receptor M1 (Homo sapiens) (UniProt P11229).
T3 sequence (whole entry): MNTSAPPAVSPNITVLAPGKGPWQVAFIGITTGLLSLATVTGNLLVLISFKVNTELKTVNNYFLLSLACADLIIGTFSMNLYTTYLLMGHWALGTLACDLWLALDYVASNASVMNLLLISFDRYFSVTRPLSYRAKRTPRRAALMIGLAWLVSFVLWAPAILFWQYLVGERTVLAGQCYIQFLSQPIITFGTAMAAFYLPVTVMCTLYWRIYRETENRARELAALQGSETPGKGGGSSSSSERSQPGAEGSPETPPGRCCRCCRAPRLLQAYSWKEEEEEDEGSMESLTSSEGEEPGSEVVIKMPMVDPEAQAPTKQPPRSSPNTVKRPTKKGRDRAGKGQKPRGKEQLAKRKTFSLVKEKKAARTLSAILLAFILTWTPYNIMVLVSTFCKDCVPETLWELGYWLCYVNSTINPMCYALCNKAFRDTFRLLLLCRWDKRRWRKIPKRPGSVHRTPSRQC
The test can be described thus: Selectivity interaction (Panel of non-epigenetic targets (kinases, GPCRs, ion channels, and transporters, Eurofins) ) EUB0000271b CHRM1. To be noted: at 1 µM.

For test [8], the target named is Macrophage colony-stimulating factor 1 receptor (Homo sapiens) (UniProt P07333). The test is described as follows: Selectivity interaction (KinomeScan (DiscoverX)) EUB0000666a CSF1R. Particulars: at 10 µM.
Test [9] has as its target Cyclin-dependent kinase 7 (Homo sapiens, UniProt P50613). The test is described as follows: Selectivity interaction (ActivX KiNativ screen (kinase selectivity in THP-1 cell lysates)) EUB0000639a CDK7. To be noted: lysate, at 5 µM. Format: subcellular.
Test [10] addresses MAP kinase-interacting serine/threonine-protein kinase 2 (Homo sapiens, UniProt Q9HBH9). The test is described as follows: Selectivity interaction (KinomeScan (DiscoverX)) EUB0000229b MKNK2. Particulars: at 10 µM.
The target of test [11] is RAC-beta serine/threonine-protein kinase (Homo sapiens) (UniProt P31751). The test can be described thus: Selectivity interaction (ActivX KiNativ screen (ex vivo kinase selectivity in human PBMCs)) EUB0001619a AKT2. To be noted: PBMC, at 1 µM. Format: cell-based.
Chain of RAC-beta serine/threonine-protein kinase (Homo sapiens) (P31751 whole entry): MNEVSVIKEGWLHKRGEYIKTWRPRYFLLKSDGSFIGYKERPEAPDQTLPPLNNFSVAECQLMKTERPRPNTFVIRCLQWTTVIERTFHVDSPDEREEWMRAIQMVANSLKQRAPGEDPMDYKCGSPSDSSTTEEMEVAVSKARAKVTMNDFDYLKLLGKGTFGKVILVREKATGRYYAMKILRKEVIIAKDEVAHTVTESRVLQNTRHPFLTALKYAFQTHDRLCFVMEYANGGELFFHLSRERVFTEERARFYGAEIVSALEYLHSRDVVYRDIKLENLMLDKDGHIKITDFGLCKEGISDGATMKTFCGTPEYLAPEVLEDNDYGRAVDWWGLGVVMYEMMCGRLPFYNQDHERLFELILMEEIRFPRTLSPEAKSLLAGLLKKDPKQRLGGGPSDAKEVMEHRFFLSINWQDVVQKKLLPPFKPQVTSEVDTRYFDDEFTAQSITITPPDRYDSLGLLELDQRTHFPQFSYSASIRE
The target in test [12] is Serine/threonine-protein kinase Nek7 (Homo sapiens) (UniProt Q8TDX7). The test can be described thus: Selectivity interaction (KinomeScan (DiscoverX)) EUB0001619a NEK7. Particulars: at 1 µM.
Chain of Serine/threonine-protein kinase Nek7 (Homo sapiens) (Q8TDX7 whole entry, looked up): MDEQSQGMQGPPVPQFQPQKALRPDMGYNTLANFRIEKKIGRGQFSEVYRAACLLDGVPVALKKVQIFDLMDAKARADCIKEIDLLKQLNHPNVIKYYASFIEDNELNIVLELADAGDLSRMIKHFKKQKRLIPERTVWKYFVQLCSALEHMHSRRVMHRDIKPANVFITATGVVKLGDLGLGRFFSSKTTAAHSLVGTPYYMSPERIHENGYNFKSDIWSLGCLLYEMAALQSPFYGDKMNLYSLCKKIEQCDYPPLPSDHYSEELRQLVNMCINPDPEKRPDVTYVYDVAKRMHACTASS
Test [13] deals with Mitogen-activated protein kinase kinase kinase 9 (Homo sapiens) (UniProt P80192). The test is described as follows: Selectivity interaction (Kinase panel (literature)) EUB0001199aCl MAP3K9. To be noted: at 1 µM.
Test [14] addresses RAC-beta serine/threonine-protein kinase (Homo sapiens) (UniProt P31751). The test can be described thus: Selectivity interaction (Kinase panel (KiNativ target engagement assay in Jurkat cells)) EUB0001635a AKT2. In kind it is cell-based. Particulars: at 1 µM.
The target in test [15] is Ephrin type-A receptor 2 (Homo sapiens) (UniProt P29317). The test is described as follows: Selectivity interaction (KinomeScan (DiscoverX)) EUB0000618a EPHA2. To be noted: at 10 µM.
Chain of Ephrin type-A receptor 2 (Homo sapiens) (P29317 whole entry): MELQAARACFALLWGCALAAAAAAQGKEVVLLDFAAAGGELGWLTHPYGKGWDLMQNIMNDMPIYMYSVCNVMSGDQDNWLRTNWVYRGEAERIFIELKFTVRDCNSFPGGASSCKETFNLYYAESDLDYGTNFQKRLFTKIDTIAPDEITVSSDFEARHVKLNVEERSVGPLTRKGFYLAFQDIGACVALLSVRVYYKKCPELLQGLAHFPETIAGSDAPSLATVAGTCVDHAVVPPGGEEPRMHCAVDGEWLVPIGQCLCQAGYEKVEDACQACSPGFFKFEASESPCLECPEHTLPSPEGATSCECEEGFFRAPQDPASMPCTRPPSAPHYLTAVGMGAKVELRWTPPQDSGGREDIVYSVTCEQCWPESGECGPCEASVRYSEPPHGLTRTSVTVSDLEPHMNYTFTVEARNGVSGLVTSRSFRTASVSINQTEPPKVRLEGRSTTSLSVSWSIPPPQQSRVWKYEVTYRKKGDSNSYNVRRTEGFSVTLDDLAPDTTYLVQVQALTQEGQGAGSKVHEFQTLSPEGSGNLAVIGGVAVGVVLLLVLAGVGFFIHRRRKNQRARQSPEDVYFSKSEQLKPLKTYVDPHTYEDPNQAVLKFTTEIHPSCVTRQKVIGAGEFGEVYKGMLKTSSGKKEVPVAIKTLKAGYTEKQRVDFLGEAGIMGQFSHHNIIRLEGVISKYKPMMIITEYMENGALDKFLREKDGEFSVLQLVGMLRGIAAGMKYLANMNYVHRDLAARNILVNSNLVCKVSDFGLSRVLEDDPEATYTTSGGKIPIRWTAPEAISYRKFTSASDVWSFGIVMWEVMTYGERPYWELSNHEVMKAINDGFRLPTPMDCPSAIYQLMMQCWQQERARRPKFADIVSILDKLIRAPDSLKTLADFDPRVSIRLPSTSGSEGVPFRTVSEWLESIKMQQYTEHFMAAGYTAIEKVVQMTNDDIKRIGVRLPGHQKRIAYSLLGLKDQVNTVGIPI

As usually defined, the IC50 is the concentration that inhibits the measured activity by half.

Chain of Cyclin-dependent kinase 7 (P50613 whole entry): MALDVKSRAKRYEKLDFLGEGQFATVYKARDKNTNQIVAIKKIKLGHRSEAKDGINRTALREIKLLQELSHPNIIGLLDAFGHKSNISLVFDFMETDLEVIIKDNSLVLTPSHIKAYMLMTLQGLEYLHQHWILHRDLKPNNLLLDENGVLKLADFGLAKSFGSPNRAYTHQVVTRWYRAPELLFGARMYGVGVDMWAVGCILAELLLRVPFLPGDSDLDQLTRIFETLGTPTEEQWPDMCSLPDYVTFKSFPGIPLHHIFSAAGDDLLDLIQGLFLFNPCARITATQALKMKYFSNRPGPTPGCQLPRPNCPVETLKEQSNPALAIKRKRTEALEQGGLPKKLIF
Chain of Calcium/calmodulin-dependent protein kinase type II subunit gamma (Homo sapiens) (Q13555 whole entry): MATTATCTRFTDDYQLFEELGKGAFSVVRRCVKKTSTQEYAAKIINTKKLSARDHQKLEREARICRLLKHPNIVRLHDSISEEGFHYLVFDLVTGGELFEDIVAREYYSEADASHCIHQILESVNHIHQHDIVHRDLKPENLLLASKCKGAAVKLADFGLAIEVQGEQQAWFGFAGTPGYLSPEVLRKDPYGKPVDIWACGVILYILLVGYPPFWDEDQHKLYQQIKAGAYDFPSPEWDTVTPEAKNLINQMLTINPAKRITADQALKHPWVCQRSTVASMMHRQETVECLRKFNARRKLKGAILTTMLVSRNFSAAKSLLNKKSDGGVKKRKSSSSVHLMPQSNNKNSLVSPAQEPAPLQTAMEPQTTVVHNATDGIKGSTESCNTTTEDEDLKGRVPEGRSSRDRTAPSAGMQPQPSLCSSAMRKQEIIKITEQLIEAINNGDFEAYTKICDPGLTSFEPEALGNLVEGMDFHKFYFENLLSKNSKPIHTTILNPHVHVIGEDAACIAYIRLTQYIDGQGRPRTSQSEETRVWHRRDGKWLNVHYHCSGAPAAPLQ

Regarding `CCN(CC)CCCCNc1ncc2cc(-c3cc(OC)cc(OC)c3)c(NC(=O)NC(C)(C)C)nc2n1`, the % of control in test [1] and in test [2] was 100% each time.

As for `Nc1cnc(N2CCc3cc(S(=O)(=O)Nc4c(F)cc(Cl)cc4F)cc(N4CCCC4=O)c32)nc1` [TP-020n], the % of control in test [3] amounted to 100%.

Compound `COc1cc(Nc2nc(C)cc(-c3cnn4nc(OC)ccc34)n2)cc(C(F)(F)F)c1` had a % of control in test [4] of 100%.

On to `CN(C)CCOc1ccc(-c2nc(-c3ccncc3)c(-c3ccc4c(c3)CC/C4=N\O)[nH]2)cc1`, for which the % of control in [5] came out at 69%.

`CN(C)CC#Cc1ccc2[nH]c3c(c2c1)-c1nc(N)ncc1CCC3` displayed an IC50 in [6] of 0.27 µM.

Consider `Cc1cc(C)cc([C@@H]2c3cc(C)ccc3NC(=O)CN2C(=O)c2ccc(Br)s2)c1`, for which the % of inhibition in [7] was -2%.

With `O=C(NOC[C@H](O)CO)c1ccc(F)c(F)c1Nc1ccc(I)cc1F`, the % of control in [8] came to 100%.

For the compound `CC[C@@H]1[C@H](F)C(=O)N[C@@H]1COc1nccc2cc(C(N)=O)c(OC)cc12` [ZIMLOVISERTIB], the % of inhibition in test [9] is 44.8%.

In [10], `COc1cc(N(C)c2ccnc3ccc(C(F)(F)F)cc23)cc(OC)c1OC` showed a % binding of 90%.

Take `N#Cc1cccc(-c2c[nH]c3ncnc(N4CCOCC4)c23)c1`: in test [11], the % of inhibition turned out to be 7%. The same compound came in with a % of control in test [12] of 100%.

For the compound `CN1Cc2nccc(-c3cn(C)nc3-c3ccc(F)cc3)c2C1=O`, the % of inhibition in test [13] stood at 2%.

With `C=CC(=O)Nc1ccc(C(=O)Nc2[nH]nc3c2CN(C(=O)N[C@H](CN(C)C)c2ccccc2)C3(C)C)cc1`, in test [14], the % of engagement was -11.1%.

In turn, `O[C@H]1CC[C@H](Nc2ncc3nc(Nc4c(F)cc(F)cc4F)n([C@H]4CCOC4)c3n2)CC1` registered a % of control in test [15] of 99%.

Source of the values: ChEMBL document CHEMBL5465560, “Selectivity Literature for EUbOPEN Chemogenomic Library” (2024).
